Laboratory results from the supplement of paper PMC10307832.

What was measured:
Assay in all cases: relative viability (nuclei count vs DMSO), 5 days (fraction); higher = more cells survive
Metformin + Crizotinib = compound: CN(C)C(=N)NC(=N)N [Metformin] + C[C@@H](Oc1cc(-c2cnn(C3CCNCC3)c2)cnc1N)c1c(Cl)ccc(F)c1Cl [Crizotinib] (partner 1 µM)
Summary of the method: (§1)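 Dosing by pin tool came one day after lung cancer cell lines were seeded in 1536-well plates, using either one drug or a fixed anchor-drug dose plus five library-drug doses (not always all listed) in √10 steps. After 5 days, nuclei were counted on 4× images. Relative viability is treated-well nuclei count divided by vehicle-well nuclei count, and values are medians of duplicate plates.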

Apatinib + Bortezomib = compound: N#CC1(c2ccc(NC(=O)c3cccnc3NCc3ccncc3)cc2)CCCC1 [Apatinib] + CC(C)C[C@H](NC(=O)[C@H](Cc1ccccc1)NC(=O)c1cnccn1)B(O)O [Bortezomib] (partner 0.002 µM)
Summary of the method: as §1

Metformin + Palbociclib = compound: CN(C)C(=N)NC(=N)N [Metformin] + CC(=O)c1c(C)c2cnc(Nc3ccc(N4CCNCC4)cn3)nc2n(C2CCCC2)c1=O [Palbociclib] (partner 0.5 µM)
Summary of the method: as §1

Apatinib + Vorinostat = compound: N#CC1(c2ccc(NC(=O)c3cccnc3NCc3ccncc3)cc2)CCCC1 [Apatinib] + O=C(CCCCCCC(=O)Nc1ccccc1)NO [Vorinostat] (partner 1 µM)
Summary of the method: as §1

| Cell Line | relative viability (Metformin + Crizotinib; first compound 10 µM) | relative viability (Metformin + Crizotinib; first compound 31.62 µM) | relative viability (Metformin + Crizotinib; first compound 100 µM) | relative viability (Metformin + Crizotinib; first compound 316.23 µM) | relative viability (Metformin + Crizotinib; first compound 1000 µM) | relative viability (Apatinib + Bortezomib; first compound 0.08 µM) | relative viability (Apatinib + Bortezomib; first compound 0.253 µM) | relative viability (Apatinib + Bortezomib; first compound 0.8 µM) | relative viability (Apatinib + Bortezomib; first compound 2.53 µM) | relative viability (Apatinib + Bortezomib; first compound 8 µM) | relative viability (Metformin + Palbociclib; first compound 10 µM) | relative viability (Metformin + Palbociclib; first compound 31.62 µM) | relative viability (Metformin + Palbociclib; first compound 100 µM) | relative viability (Metformin + Palbociclib; first compound 316.23 µM) | relative viability (Metformin + Palbociclib; first compound 1000 µM) | relative viability (Apatinib + Vorinostat; first compound 0.08 µM) | relative viability (Apatinib + Vorinostat; first compound 0.253 µM) | relative viability (Apatinib + Vorinostat; first compound 0.8 µM) | relative viability (Apatinib + Vorinostat; first compound 2.53 µM) | relative viability (Apatinib + Vorinostat; first compound 8 µM) |
| --- | --- | --- | --- | --- | --- | --- | --- | --- | --- | --- | --- | --- | --- | --- | --- | --- | --- | --- | --- | --- |
| NCI-H1734 | 0.743 | 0.83 | 0.654 | 0.669 | 0.74 | 0.98 | 1.11 | 0.947 | 0.764 | 0.759 | 0.284 | 0.329 | 0.292 | 0.359 | 0.371 | 0.935 | 0.947 | 0.773 | 0.727 | 0.728 |
| NCI-H1299 | 0.98 | 0.962 | 0.975 | 0.972 | 1.04 | 1.06 | 1.02 | 0.987 | 1.03 | 0.908 | – | – | – | – | – | – | – | – | – | – |
| NCI-H1915 | – | 0.985 | 0.918 | 0.889 | 0.96 | 0.953 | 0.984 | 0.956 | 0.812 | 0.924 | – | 0.406 | 0.515 | 0.462 | 0.463 | 0.578 | 0.519 | 0.495 | 0.37 | 0.314 |
| NCI-H2228 | 0.48 | 0.515 | – | 0.385 | 0.581 | 1.27 | 1.17 | 1.17 | 1.02 | 0.93 | 0.626 | 0.782 | 0.747 | 0.526 | 0.946 | 0.535 | 0.703 | 0.538 | 0.55 | 0.639 |
| NCI-H650 | 0.709 | 0.669 | 0.908 | 0.709 | 0.862 | 0.888 | 0.835 | 0.834 | 0.543 | 0.754 | 0.33 | 0.278 | 0.385 | 0.326 | 0.348 | 0.494 | 0.422 | 0.391 | 0.264 | 0.42 |
| NCI-H2009 | 1.06 | 1.07 | 1.11 | 1.04 | 0.878 | 1.09 | 0.955 | 0.954 | 0.714 | 0.574 | 0.194 | 0.321 | 0.228 | 0.122 | 0.202 | 0.701 | 0.776 | 0.669 | 0.627 | 0.48 |
| NCI-H23 | 0.574 | 0.692 | 0.693 | 0.548 | 0.811 | 0.91 | 1.01 | 0.908 | 0.902 | 0.805 | 0.583 | 0.563 | 0.495 | 0.508 | 0.553 | 0.696 | 0.793 | 0.568 | 0.491 | 0.524 |
| NCI-H2087 | 0.813 | 0.726 | 0.682 | 0.849 | 0.638 | 0.866 | 0.82 | 0.779 | 0.737 | 0.671 | 0.263 | 0.226 | 0.268 | 0.218 | 0.235 | 0.768 | 0.591 | 0.747 | 0.579 | 0.688 |
| NCI-H358 | 0.551 | 0.448 | 0.587 | 0.311 | 0.507 | – | – | – | – | – | 0.114 | 0.125 | 0.122 | 0.138 | 0.141 | 0.762 | 0.866 | 0.616 | 0.618 | 0.578 |
| ChaGo-K-1 | 1.16 | 1.07 | 1.09 | 1.13 | 1.19 | – | 1.19 | 0.847 | 0.857 | 1.03 | 0.92 | 0.897 | 0.957 | 0.716 | 0.967 | 0.838 | 0.843 | 0.789 | 0.656 | 0.565 |
| NCI-H596 | 1.05 | 1.17 | 1.09 | 1.11 | 1.17 | 1.2 | 1 | 1.17 | 0.929 | 1.04 | – | – | – | – | – | 0.703 | 0.58 | 0.672 | 0.492 | 0.546 |
| A549 | 0.782 | 0.531 | 0.653 | 0.723 | 0.777 | – | – | – | – | – | – | – | – | – | – | – | – | – | – | – |
| NCI-H1648 | – | – | – | – | – | – | – | – | – | – | – | 0.299 | 0.296 | 0.294 | 0.294 | 0.682 | 0.503 | 0.403 | 0.54 | 0.276 |
| NCI-H1793 | – | – | – | – | – | – | – | – | – | – | 0.297 | 0.39 | 0.387 | 0.353 | 0.361 | 0.948 | 0.779 | 0.773 | 0.522 | 0.628 |
| SW 900 | – | – | – | – | – | – | – | – | – | – | 0.542 | 0.536 | – | 0.497 | 0.578 | 0.577 | 0.586 | 0.482 | 0.355 | 0.454 |
| NCI-H1792 | – | 0.956 | 1.13 | 0.971 | 0.98 | 0.917 | 1.05 | 0.957 | 0.906 | 0.968 | – | 0.663 | 0.817 | 0.698 | 0.238 | – | – | – | – | – |
| NCI-H2342 | – | – | – | – | – | – | – | – | – | – | – | 0.681 | 0.548 | 0.522 | 0.519 | 0.625 | 0.655 | 0.763 | 0.685 | 0.72 |
| NCI-H1703 | 0.989 | 0.934 | 0.66 | 0.679 | 0.886 | 0.325 | 0.297 | 0.257 | 0.175 | 0.154 | – | – | – | – | – | – | – | – | – | – |
| Calu-6 | 0.637 | 0.755 | 0.71 | 0.691 | 0.714 | 0.969 | 1.12 | 0.96 | 0.789 | 0.814 | – | – | – | – | – | – | – | – | – | – |
| EBC-1 | 0.205 | 0.154 | 0.205 | 0.173 | 0.222 | 0.577 | 0.782 | 0.605 | 0.395 | 0.359 | – | – | – | – | – | – | – | – | – | – |
| IA-LM | 0.76 | 0.944 | – | 0.926 | 0.973 | 0.952 | 0.976 | 0.839 | 0.536 | 0.183 | – | – | – | – | – | 0.975 | 0.968 | 0.958 | 0.765 | 0.92 |
| NCI-H1563 | 0.855 | 0.889 | 0.865 | 0.793 | 0.827 | 0.762 | 0.963 | 0.811 | 0.737 | 0.762 | – | – | – | – | – | – | – | – | – | – |
| NCI-H1944 | 1.06 | 1.29 | 1.26 | 1.11 | 1.12 | – | – | – | – | – | 0.386 | 0.44 | 0.404 | 0.344 | 0.404 | 0.519 | 0.526 | 0.454 | 0.422 | 0.419 |
